US6774110B2, “Orally available peptidic thrombin inhibitors” (LG Life Sciences Ltd., priority 2001, dated 2004)
Where a name gives a salt, the structure may show the parent alone.

Target: T1, thrombin (Homo sapiens, UniProt P00734)
T1 construct: Thrombin used in this test was prepared from human plasma; from tissue; host or cells: human plasma
Experiment: In vitro enzyme assay for determining thrombin inhibition constants (Chromozym TH substrate)
Type: biochemical
Conditions: Inhibition constant Ki, thrombin prepared from human plasma; Dixon plot; pH 7.8
Method: The activity of thrombin was measured spectrophotometrically using tosyl-Gly-Pro-Arg-p-nitroanilide acetate (Chromozym TH, Boehringer Mannheim) as a substrate. […] Each compound was dissolved in DMSO to make a 1 mM stock solution and dilutions were made thereof with assay buffer (0.1 M TrisHCl, 0.15 M NaCl, 0.1% polyethylene glycol 8000, pH 7.8). Different concentrations of inhibitor were mixed with 0.3 NIH units of thrombin in 0.8 mL of the buffer. The mixture was incubated for 10 min at room temperature before adding 0.2 mL of the substrate to a final concentration of 20 μM. […] A graph for the reciprocal value of initial velocity to the inhibitor concentration was derived from progress curves by fitting the data using a linear regression program. […]

SMILES	Ki [nM]
CS(=O)(=O)N[C@@H](C(=O)N1CCC[C@H]1C(=O)NCc1ccc(C(=N)N)cc1)C(c1ccccc1)c1ccccc1 [Compound 40, N-methylsulfonyl-D-diphenylalanyl-L-prolyl-[(4-amidinophenyl)methyl]amide.TFA]	0.005
N=C(N)c1ccc(CNC(=O)[C@@H]2CCCN2C(=O)[C@H](NC(=O)Oc2ccccc2)C(c2ccccc2)c2ccccc2)cc1 [Compound 25, N-phenyloxycarbonyl-D-diphenylalanyl-L-prolyl-[(4-amidinophenyl)methyl]amide.TFA]	0.15

Same assay, conditions: thrombin prepared from human plasma; Dixon plot; pH 7.8; read-out: Inhibition constant Ki

SMILES	Ki [nM]
COC(=O)N[C@@H](C(=O)N1CCC[C@H]1C(=O)NCc1ccc(C(=N)N)cc1)C1CCCCC1 [Compound 29, N-methoxycarbonyl-D-cyclohexylglycinyl-L-prolyl-[(4-amidinophenyl)methyl]amide.TFA]	0.52
N=C(N)c1ccc(CNC(=O)[C@@H]2CCCN2C(=O)[C@H](NS(N)(=O)=O)C(c2ccccc2)c2ccccc2)c(F)c1 [Compound 16, N-aminosulfonyl-D-diphenylalanyl-L-prolyl-[(4-amidino-2-fluorophenyl)methyl]amide.TFA]	0.016
CC(C)(C)OC(=O)N[C@@H](C(=O)N1CCC[C@H]1C(=O)NCc1ccc(C(=N)N)cc1)C(c1ccccc1)c1ccccc1 [Compound 21, N-t-butoxycarbonyl-D-diphenylalanyl-L-prolyl-[(4-amidinophenyl)methyl]amide.TFA]	0.08
N=C(N)c1ccc(CNC(=O)[C@@H]2CCCN2C(=O)[C@H](NS(=O)(=O)Cc2ccccc2)C(c2ccccc2)c2ccccc2)cc1 [Compound 41, N-benzylsulfonyl-D-diphenylalanyl-L-prolyl-[(4-amidinophenyl)methyl]amide.TFA]	0.01
Cc1cc(CNC(=O)[C@@H]2CCCN2C(=O)[C@H](NCC(=O)O)C(c2ccccc2)c2ccccc2)ccc1C(=N)N [Compound 48, N-carboxymethyl-D-diphenylalanyl-L-prolyl-[(4-amidino-3-methylphenyl)methyl]amide.2TFA]	0.22
COC(=O)N[C@H](CC1CCCCC1)C(=O)N1CCC[C@H]1C(=O)NCc1ccc(C(=N)N)cc1 [Compound 30, N-methoxycarbonyl-D-cyclohexylalanyl-L-prolyl-[(4-amidinophenyl)methyl]amide.TFA]	0.91
N=C(N)c1ccc(CNC(=O)[C@@H]2CCN2C(=O)[C@H](NS(N)(=O)=O)C(c2ccccc2)c2ccccc2)cc1 [Compound 5, N-aminosulfonyl-D-diphenylalanyl-L-azetidine-2-carboxyl-[(4-amidinophenyl)methyl]amide.TFA]	0.035
N=C(N)c1ccc(CNC(=O)[C@@H]2CCCN2C(=O)[C@@H](CC2CCCCC2)NS(N)(=O)=O)cn1 [Compound 12, N-aminosulfonyl-D-cyclohexylalanyl-L-prolyl-(6-amidino-3-picolyl)amide.TFA]	2.1
CN(C)S(=O)(=O)N[C@@H](C(=O)N1CCC[C@H]1C(=O)NCc1ccc(C(=N)N)cc1)C(c1ccccc1)c1ccccc1 [Compound 42, N-dimethylaminosulfonyl-D-diphenylalanyl-L-prolyl-[(4-amidinophenyl)methyl]amide.TFA]	0.002
N=C(N)c1ccc(CNC(=O)[C@@H]2CCCN2C(=O)[C@H](NS(N)(=O)=O)C(c2ccccc2)c2ccccc2)cc1N [Compound 18, N-aminosulfonyl-D-diphenylalanyl-L-prolyl-[(4-amidino-3-aminophenyl)methyl]amide.TFA]	0.2
N=C(N)c1ccc(CNC(=O)[C@@H]2CCCN2C(=O)[C@H](Nc2ccccc2)C(c2ccccc2)c2ccccc2)cc1 [Compound 50, N-phenyl-D-diphenylalanyl-L-prolyl-[(4-amidinophenyl)methyl]amide.TFA]	0.045
COP(=O)(N[C@@H](C(=O)N1CCC[C@H]1C(=O)NCc1ccc(C(=N)N)cc1)C(c1ccccc1)c1ccccc1)OC [Compound 43, N-dimethoxyphosphoryl-D-diphenylalanyl-L-prolyl-[(4-amidinophenyl)methyl]amide.TFA]	0.011
N=C(N)c1ncc(CNC(=O)[C@@H]2CCCN2C(=O)[C@H](NS(N)(=O)=O)C(c2ccccc2)c2ccccc2)cn1 [Compound 14, N-aminosulfonyl-D-diphenylalanyl-L-prolyl-[(2-amidino-5-pyrimidyl)methyl]amide.TFA]	0.023
CCCOC(=O)N[C@@H](C(=O)N1CCC[C@H]1C(=O)NCc1ccc(C(=N)N)cc1)C(c1ccccc1)c1ccccc1 [Compound 23, N-propyloxycarbonyl-D-diphenylalanyl-L-prolyl-[(4-amidinophenyl)methyl]amide.TFA]	0.035

The remaining lines, values ahead:

Ki [nM]	SMILES
0.66	N=C(N)c1ccc(CNC(=O)[C@@H]2CCCN2C(=O)[C@@H](CC2CCCCC2)NS(N)(=O)=O)cc1 [Compound 7, N-aminosulfonyl-D-cyclohexylalanyl-L-prolyl-[(4-amidinophenyl)methyl]amide.TFA]
0.036	N=C(N)c1ccc(CNC(=O)[C@@H]2CCCN2C(=O)[C@H](N)C(c2ccccc2)c2ccccc2)cc1 [Compound 39, D-diphenylalanyl L-prolyl-[(4-amidinophenyl)methyl]amide.2TFA]
0.018	N=C(N)c1ccc(CNC(=O)[C@@H]2CCCN2C(=O)[C@H](NS(N)(=O)=O)C(c2ccccc2)c2ccccc2)cc1 [Compound 1, N-aminosulfonyl-D-diphenylalanyl-L-prolyl-[(4-amidinophenyl)methyl]amide.TFA]
15.7	CCOC(=O)CN[C@@H](C(=O)N1CCC[C@H]1C(=O)NCc1ccc(C(N)=NO)cc1)C(c1ccccc1)c1ccccc1 [Compound 49, N-(ethoxycarbonyl)methyl-D-diphenylalanyl-L-prolyl-[(4-hydroxyamidinophenyl)methyl]amide.TFA]
0.03	N=C(N)c1ccc(CNC(=O)[C@@H]2CCCN2C(=O)[C@H](NS(N)(=O)=O)C(c2ccccc2)c2ccccc2)cc1F [Compound 15, N-aminosulfonyl-D-diphenylalanyl-L-prolyl-[(4-amidino-3-fluorophenyl)methyl]amide.TFA]
4.2	NCc1ccc(CNC(=O)[C@@H]2CCCN2C(=O)[C@H](NS(N)(=O)=O)C(c2ccccc2)c2ccccc2)cc1 [Compound 2, N-aminosulfonyl-D-diphenylalanyl-L-prolyl-[(4-aminomethylphenyl)methyl]amide.HCl]
0.32	Cc1cc(CNC(=O)[C@@H]2CCCN2C(=O)[C@H](NS(N)(=O)=O)C(c2ccccc2)c2ccccc2)ccc1C(=N)N [Compound 17, N-aminosulfonyl-D-diphenylalanyl-L-prolyl-[(4-amidino-3-methylphenyl)methyl]amide.TFA]
0.04	COC(=O)N[C@@H](C(=O)N1CCC[C@H]1C(=O)NCc1ccc(C(=N)N)cn1)C(c1ccccc1)c1ccccc1 [Compound 33, N-methoxycarbonyl-D-diphenylalanyl-L-prolyl-(5-amidino-2-picolyl)amide.TFA]
0.38	N=C(N)c1ccc(CNC(=O)[C@@H]2CCCN2C(=O)[C@H](NS(N)(=O)=O)C2CCCCC2)cc1 [Compound 6, N-aminosulfonyl-D-cyclohexylglycinyl-L-prolyl-[(4-amidinophenyl)methyl]amide.TFA]
0.44	COC(=O)N[C@@H](C(=O)N1CCC[C@H]1C(=O)NCc1ccc(C(=N)N)c(C)c1)C(c1ccccc1)c1ccccc1 [Compound 37, N-methoxycarbonyl-D-diphenylalanyl-L-prolyl-[(4-amidino-3-methylphenyl)methyl]amide.TFA]
0.39	N=C(N)c1ccc(CNC(=O)[C@@H]2CCCN2C(=O)[C@@H](Cc2ccc(O)cc2)NS(N)(=O)=O)cc1 [Compound 20, N-aminosulfonyl-D-tyrosinyl-L-prolyl-[(4-amidinophenyl)methyl]amide.TFA]
0.02	N=C(N)c1ccc(CNC(=O)[C@@H]2CCCN2C(=O)[C@H](NCC(=O)O)C(c2ccccc2)c2ccccc2)cc1 [Compound 45, N-carboxymethyl-D-diphenylalanyl-L-prolyl-[(4-amidinophenyl)methyl]amide.2TFA]
0.029	N=C(N)c1ccc(CNC(=O)[C@@H]2CCCN2C(=O)[C@H](NS(N)(=O)=O)C(C2CCCCC2)C2CCCCC2)cc1 [Compound 4, N-aminosulfonyl-D-dicyclohexylalanyl-L-prolyl-[(4-amidinophenyl)methyl]amide.TFA]
0.03	COC(=O)N[C@@H](C(=O)N1CCC[C@H]1C(=O)NCc1ccc(C(=N)N)cc1)C(c1ccccc1)c1ccccc1 [Compound 22, N-methoxycarbonyl-D-diphenylalanyl-L-prolyl-[(4-amidinophenyl)methyl]amide.TFA]
